Measured values: PMC12266748, “A Xanthine Derivative With Novel Heat Shock Protein 90‐Alpha Inhibitory and Senolytic Properties” (Aging Cell, 2025)
Like-named read-outs stand apart in the source and are kept apart here.

What was measured:
HSP90α [1] = biological target: T1, HSP90α (Homo sapiens, UniProt P07900); assay: HSP90 N-Terminal Domain Assay Kit, fluorescence polarization competition with FITC-Geldanamycin; type: binding; set-up: purchased BPS Bioscience 50293; conditions: dose-response 1 pM to 10 μM, n = 3, extrapolated with GraphPad Prism; read-out: HSP90α inhibition IC50
Method: HSP90‐directed inhibitory activity was assessed employing the HSP90 N‐Terminal Domain Assay Kit (BPS Bioscience) according to the manufacturer's instructions. The fluorescence intensity was measured with a multiplate reader (Victor Nivo‐Perkin Elmer). The IC50 was calculated by analyzing the data using GraphPad Prism 10 software.
HSP90 inhibition activity assay. […] […] […] Data are the percentage of residual enzyme activity relative to the solvent (DMSO). The IC50s were calculated by analyzing the data using GraphPad Prism 10 software.

HSP90α [2] = biological target: T1, HSP90α; assay: Cellular thermal shift assay (CETSA) on cellular lysates, HSP90α; conditions: 46°C, compound 0.5 mM
Method: Cellular Thermal Shift Assay (CETSA). […] Briefly, the cellular extract was lysed in RIPA buffer (10 mM Tris-HCl pH 7.4, 250 mM NaCl, 1% NP40/IGEPAL, 1% DOC, 0.01% SDS, 0.01% Glycerol, supplemented with protease/phosphatase inhibitor, PI/PhI mix and 2 mM DTT) and protein concentration was determined by a BCA kit (Pierce, Life Technologies, TFS, Waltham, MA, USA). Samples were homogenized by 3 cycles of freeze-thawing using liquid nitrogen and centrifuged at 13000 rpm at 4 °C for 30 min to separate the soluble fraction from the debris.
Following the supplier's recommendations, samples were loaded into the proper cartridge (12- 230 kDa Wes/Jess Separation Modules, ProteinSimple, Biotechne, Minneapolis, MN, USA). HSP90α (1:50, MsMAb, Abcam), HSP90β (1:50, RbMAb, Abcam), GRP94 (1:50, RbMAb, Abcam), TRAP1 (1:50, MsMAb, Abcam), α-Tubulin (1:500, MsMAb, Abcam), and β-Actin (1:500, RbMAb, Abcam) were used as primary antibodies. Secondary antibodies were Anti-Mouse Secondary HRP and Anti-Rabbit Secondary HRP (ProteinSimple, Biotechne, Minneapolis, MN, USA).

IMR90 cells [3] = assay: In vitro screening of the 14 in silico-selected compounds, surviving cell count, proliferating vs senescent IMR90; type: cell-based, Homo sapiens; conditions: 48 h; for senolytic activity on senescent IMR90 cells: PD19-PD21, 1 μM; for effect on non-senescent IMR90 cells: PD15-PD17, 1 μM
Source text: (§1) IMR90 and WI38 lung fibroblasts were purchased from ECACC‐Merck. Human bone marrow (BM)‐derived mesenchymal stromal cells (MSCs) were purchased from Lonza. Human umbilical vein endothelial cells (HUVECs) are primary cells obtained from a pool of donors purchased from Clonetics (Lonza). Murine ear fibroblasts (MearFs) were obtained from C57BL/6J mice maintained in the INRCA “Specific Pathogen Free” (SPF) animal facility. MCF7 breast cancer cells were purchased from ATCC. For dose–response curves, IMR90 and WI38 were induced to senescence through replicative passages; MSCs, HUVECs, and MearFs senescence was induced with Doxorubicin; MCF7 senescence was induced with 4‐Hydroxytamoxifen (Lee et al. [2014]). The EC50 was calculated using GraphPad Prism 10 software. All treatment specifications are reported in the extended section.
(§2) Cell culture and treatment. IMR90 cells (Homo sapiens, fetal lung, fibroblast) and WI38 cells (Homo sapiens, fetal lung, fibroblast) were purchased from ECACC-Merck (Merck, Darmstadt, Germany) and cultured in MEM medium (Euroclone, Milano, Italy) supplemented with 1% L-Glutamine (Euroclone, Milano, Italy), 1% Penicillin-Streptomycin (Euroclone, Milano, Italy), and 10% Fetal Bovine Serum (FBS, Euroclone, Milano, Italy), at 37°C, 5% CO2. IMR90 cells with a population doubling (PD) from PD15 to PD23 were used; cells were considered incrementally senescent from passage PD19 to passage PD23. WI38 cells were used from PD26 to PD53. Cells were considered incrementally senescent from passage PD49 to passage PD53. For the compounds in vitro screening, IMR90 cells with passages from PD15 to PD23 were tested at increasing concentrations of 0.5 μM, 1 μM, 10 μM, and 25 μM over 24 and 48 h to evaluate the compounds' efficacy and cytotoxicity compared to the Vehicle (DMSO ≤ 0.1%). Cells were counted manually, in triplicate, using Trypan blue reagent (Euroclone) and disposable Bürker chambers. […] K5 dose-response proliferation curves were performed with compound K5 (Molport, SIA, Riga, Latvia) in concentrations 0.1, 0.5, 1, 5, 10, 50, 100, and 200 μM for 48 h. Cells were counted using a Trypan blue reagent and EVAplus cell counter. The EC50s were calculated by analyzing the data using GraphPad Prism 10 software.

IMR90 cells [4] = assay: Immunofluorescence of Cytochrome C / mitochondria colocalization in senescent IMR90; type: cell-based, Homo sapiens; conditions: senescent IMR90 (PD21), 48 h, K5 25 μM, Dasatinib 1 μM; Vehicle OR = 0.913
Method: (§3) Treated/untreated senescent IMR90 and MCF7 cells were fixed, permeabilized, and stained following suppliers' recommendations. Images were acquired using an Olympus IX83 research inverted microscope (IF) and a phase microscopy Nikon ECLIPSE Ei R (IHC) at 40× MAG.
(§4) Immunofluorescence staining. Treated/untreated IMR90 and MCF7 cells were cultured in LabTek II chamber slides (Nunc, Biosigma). At the final time point, cells were stained with 500 nM MitoTracker Orange (Thermo Fisher Scientific) for 30 min at 37°C and then fixed in 4% PFA (Merck) for 10 min, RT, and permeabilized with 0.1% Triton solution (Merck) for 30 min at RT. Samples were blocked in 5% BSA for 90 min, incubated overnight at 4°C with primary antibody against Cytochrome C (1:50, RbMAb, Abcam), and 1h at RT with secondary antibody Alexa Fluor 488 goat anti-Rb (1:200, Thermo Fisher Scientific). Nuclei were stained with DAPI (Cell Signaling) for 10 min at RT, and ProLong Glass Antifade Mountant (Thermo Fisher Scientific) was used to seal coverslips. Images were acquired using an Olympus IX83 research inverted microscope at 40X magnifications.

MCF7 cells = assay: Immunofluorescence of Cytochrome C / mitochondria colocalization in senescent MCF7; type: cell-based, Homo sapiens; conditions: MCF7, TAM 10 µM 96 h, then 72 h K5 10 µM or Dasatinib 1 µM
Method: as §3, §4

IMR90 cells [5] = assay: Dose-response curves on proliferating and replicative senescent IMR90 (Trypan blue cell count); type: cell-based
Source text: as §1, §2
MCF7 cell line (ATCC; HTB-22, Homo sapiens, breast cancer) was purchased from ATCC; cells were grown in MEM medium (Corning, New York, USA, #15-010-CVR) supplemented with 10% FBS (Gibco, Invitrogen, Carlsbad, CA, USA, #10270106), 1% glutamine (Corning #25005-CI), 1% penicillin and streptomycin (Corning #30002-CI). Cells were incubated at 37 °C with 5% CO2. Senescent status induction: MCF7 were plated 24 h before the treatment with 4-Hydroxytamoxifen (TAM) 10 μM to induce the senescence described by (Lee et al. 2014). Control cultures were treated with equal volumes of 75% ethanol as the vehicle. The treatment with TAM lasts 96 h, after which the cells have been washed and treated with the senolytic drugs K5 10 µM for another 96 h. The treatment with the senolytic compounds has been renewed at 48 h. Cell mortality and vitality curves after treatment with K5 (10 μM, orange) or Vehicle (DMSO, grey) were monitored using the Incucyte live-cell Analysis system (Sartorius, Goettingen, Germany). The estimated Senolytic index (SI) was calculated as the ratio between the EC50 in proliferating cells and the EC50 in senescent cells, extrapolated using GraphPad Prism 10 software.

IMR90 cells [6] = assay: as above; type: cell-based; conditions: proliferating IMR90 (PD14), 48 h

Cn1c(=O)c2c(ncn2C)n(C)c1=O [Caffeine, reference compound]
IC50 (HSP90α [1]): > 300000 nM | interaction / stabilization of HSP90α in CETSA (HSP90α [2]): does not interact with the protein

Cc1[nH]nc(-c2ccc(O)cc2O)c1Oc1ccc(F)cc1 [Compound B2, 4-[4-(4-fluorophenoxy)-5-methyl-1H-pyrazol-3-yl]benzene-1,3-diol]
senolytic activity on senescent IMR90 cells (IMR90 cells [3]): evident senolytic activity

Cc1nc(Nc2ncc(C(=O)Nc3c(C)cccc3Cl)s2)cc(N2CCN(CCO)CC2)n1 [Dasatinib, reference compound]
Cytochrome C / mitochondria colocalization, Overlap R (OR) (IMR90 cells [4]): 0.639 | Cytochrome C / mitochondria colocalization, Overlap R (OR) (MCF7 cells; TAM + Vehicle OR = 0.978): 0.956 | Cytochrome C / mitochondria colocalization, Pearson's Rr (PRr) (MCF7 cells; TAM + Vehicle PRr = 0.961): 0.928

CO[C@H]1/C=C\C=C(/C)C(=O)NC2=CC(=O)C(NCCN(C)C)=C(C[C@@H](C)C[C@H](OC)[C@H](O)[C@@H](C)/C=C(\C)[C@@H]1OC(N)=O)C2=O [Compound 17-DMAG]
effect on non-senescent IMR90 cells (IMR90 cells [3]): cytotoxic effects also visible in non | Senolytic evidence (no, partly/yes) (IMR90 cells [5]; IMR90, Replicative/passages): Yes | EC50 (IMR90 cells [5]; IMR90, Replicative/passages, read-out: EC50 senescent cells): 85 nM | EC50 (IMR90 cells [5]; IMR90, read-out: EC50 proliferating cells): 780 nM | EC50 (IMR90 cells [6]): 785 nM

O=S(=O)(NCc1ccc(-c2ccc(F)cc2F)o1)c1ccccc1 [Compound C2, N-{[5-(2,4-difluorophenyl)furan-2-yl]methyl}benzenesulfonamide]
senolytic activity on senescent IMR90 cells (IMR90 cells [3]): evident senolytic activity

CC(C)c1cc(-c2n[nH]c(=O)n2-c2ccc3c(ccn3C)c2)c(O)cc1O [Ganetespib]
effect on non-senescent IMR90 cells (IMR90 cells [3]): cytotoxic effects also visible in non | EC50 (IMR90 cells [5]; Homo sapiens, IMR-90, IMR90, Replicative/passages, read-out: EC50 senescent cells): 87 nM | EC50 (IMR90 cells [5]; Homo sapiens, IMR-90, IMR90, read-out: EC50 proliferating cells): 1000 nM | Senolytic evidence (no, partly/yes) (IMR90 cells [5]; IMR90, Replicative/passages): Yes | EC50 (IMR90 cells [6]; Homo sapiens, IMR-90): 1040 nM
